Experimental findings from patent US10980727B2, “Mixtures containing (E)-3-benzo[1,3]dioxol-5-yl-N,N-diphenyl-2-propenamide” (SYMRISE AG, priority 2016, dated 2021) are described below.

Each structure is given as a SMILES string.

What all share (type): physicochemical
Data set [1] in a line: Solubility of BDDPA in different solvents at room temperature. The procedure: The solubility of (E)-3-benzo[1,3]dioxol-5-yl-N,N-diphenyl-2-propenamide (BDDPA) in different solvents was tested.
(§1) The amount of solvent added to the amount of (E)-3-benzo[1,3]dioxol-5-yl-N,N-diphenyl-2-propenamide is added up to 100 wt.-% in each mixture (1 to 18). Thus the composition of mixture 1 is 99 wt.-% ethanol, 1 wt.-% BDDPA.

A short description of data set [2]: Stability of the mixtures on storage at 5° C. Particulars: mixtures of table 2. The procedure: Several of the mixtures of example 1 were stored at night at 5 C to observe the stability.
as §1

Data set [3] can be described thus: Solubility of BDDPA in binary and ternary solvent systems at 23° C. and 90° C. The procedure:
The solubility of (E)-3-benzo[1,3]dioxol-5-yl-N,N-diphenyl-2-propenamide (BDDPA) in different solvent combinations was tested.
The amount of solvents 1 to 3 add up to 100 wt.-% with the amount of (E)-3-benzo[1,3]dioxol-5-yl-N,N-diphenyl-2-propenamide. Thus the composition of mixture 19 is 5 wt.-% BDDPA, 47.5 wt.-% triacetin and 47.5 wt.-% peppermint oil.

On to `O=C(/C=C/c1ccc2c(c1)OCO2)N(c1ccccc1)c1ccccc1` [BDDPA, (E)-3-benzo[1,3]dioxol-5-yl-N,N-diphenyl-2-propenamide], for which, in data set [1] (23° C., solvents of table 1), the “BDDPA dissolved in the respective solvents at room temperature” value is “completely dissolved”. In addition, in data set [1] (where necessary by means of ultrasonification), the “Temperature at which BDDPA dissolves in the solvents of table 1” value is not above 65 °C. The “Recrystallization on storage over night below room temperature” value in data set [2] is “no recrystallization occurs”. For the same compound, the “BDDPA dissolved in binary and ternary solvent combinations at room temperature” value in data set [3] (23° C.) was “completely dissolved”. Also, in data set [3] (90° C.), the “BDDPA dissolved in binary and ternary solvent combinations at high temperature” value is recorded as “remains stably dissolved”.
